According to patent US6083969A, “1,3- and 2,3-diarylcycloalkano and cycloalkeno pyrazoles as selective inhibitors of cyclooxygenase-2 and antiinflammatory agents” (Ortho-McNeil Pharaceutical, Inc., priority 1999, dated 2000):

Assays:
[1] = molecular target: T1, human prostaglandin H2 synthase type II (COX-2) (Homo sapiens, UniProt P35354); test: Human prostaglandin H2 synthase type II (COX-2) whole cell assay (ECV-304 cells, PGE2 by radioimmunoassay); assay type: cell-based; design: endogenous in cells; host or cells: ECV-304; settings: for IC50: read-out: P2: COX 2 Whole Cell IC50; for inhibition at 3 µM: @3 μM (superscript a); for inhibition at 3 µM / inhibition at 10 µM: read-out: P1: COX 2 Whole Cell % Inhibition
T1 sequence (P35354 18-604): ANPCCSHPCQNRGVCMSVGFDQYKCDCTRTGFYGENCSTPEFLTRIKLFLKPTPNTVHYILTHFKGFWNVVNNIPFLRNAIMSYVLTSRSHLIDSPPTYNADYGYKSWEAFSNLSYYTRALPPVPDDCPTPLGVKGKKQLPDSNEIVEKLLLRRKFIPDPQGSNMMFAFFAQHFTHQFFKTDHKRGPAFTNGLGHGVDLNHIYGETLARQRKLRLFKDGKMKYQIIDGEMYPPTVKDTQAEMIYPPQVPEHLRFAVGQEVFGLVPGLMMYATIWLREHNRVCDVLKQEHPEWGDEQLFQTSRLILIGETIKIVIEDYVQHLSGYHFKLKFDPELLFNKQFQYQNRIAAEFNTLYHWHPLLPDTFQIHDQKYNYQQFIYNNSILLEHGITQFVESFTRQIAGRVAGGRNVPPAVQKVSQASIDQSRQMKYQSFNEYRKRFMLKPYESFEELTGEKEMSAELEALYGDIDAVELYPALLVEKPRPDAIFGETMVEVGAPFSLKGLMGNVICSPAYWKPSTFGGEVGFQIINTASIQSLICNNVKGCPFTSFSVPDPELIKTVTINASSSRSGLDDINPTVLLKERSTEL
Description: HUMAN PROSTAGLANDIN H2 SYNTHASE TYPE II (COX-2) WHOLE CELL ASSAY (MULTIPLE CONCENTRATIONS)
Procedures 1 and 2 were used to determine the ability of the compounds to inhibit human prostaglandin H2 synthase type II (COX-2) in a whole cell assay at multiple concentrations as follows:
Approximately 28 h later, […] PMA and […] ionomycin (both final concentrations) are added to each well and incubated for an additional 16 h. Vehicle or test compounds in the amount of […] are incubated with the cells for five minutes prior to initiation of COX-2 enzyme activity by the addition of 30 μM arachidonic acid. Ten minutes later, an aliquot of the supernatant is withdrawn and the amount of PGE2 present quantitated by radioimmunoassay. Activity, reported as percent inhibition of PGE2 produced, is calculated as follows: [formula]

COX-1 = molecular target: T2, COX-1 (Homo sapiens, UniProt P23219); test: Human platelet thromboxane B2 production (via COX-1); assay type: cell-based; settings: human platelets, TXB2 production; read-out: P5: COX 1 Human Platelet IC50
T2 construct: Remove the platelet-rich plasma (PRP) and dilute the PRP 1:20 with 0.9% NaCl; endogenous in cells; host or cells: human platelets (platelet-rich plasma of one volunteer)
T2 sequence (P23219 24-599): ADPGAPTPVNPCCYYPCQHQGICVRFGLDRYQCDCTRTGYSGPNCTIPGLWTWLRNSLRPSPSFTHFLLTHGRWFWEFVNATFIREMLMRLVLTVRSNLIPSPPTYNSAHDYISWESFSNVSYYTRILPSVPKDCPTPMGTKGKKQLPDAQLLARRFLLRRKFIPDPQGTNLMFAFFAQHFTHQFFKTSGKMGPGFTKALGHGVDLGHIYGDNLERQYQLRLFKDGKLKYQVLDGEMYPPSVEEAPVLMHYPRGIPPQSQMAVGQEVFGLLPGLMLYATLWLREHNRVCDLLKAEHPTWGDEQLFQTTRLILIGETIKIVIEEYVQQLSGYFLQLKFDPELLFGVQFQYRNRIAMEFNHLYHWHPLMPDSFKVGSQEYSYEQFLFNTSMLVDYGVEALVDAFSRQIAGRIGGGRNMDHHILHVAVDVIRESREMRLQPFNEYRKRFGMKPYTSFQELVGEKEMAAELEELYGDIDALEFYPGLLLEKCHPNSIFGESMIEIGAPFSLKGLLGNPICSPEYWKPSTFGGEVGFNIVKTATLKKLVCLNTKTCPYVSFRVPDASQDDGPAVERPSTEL
Description: HUMAN […] THROMBOXANE B2 PRODUCTION (via COX-1)
Procedure 5 was used to determine thromboxane B2 (TXB2) production (via COX-1) in human platelets as follows:
Draw blood from one volunteer into heparinized tubes then spin at RT for 15 to 20 minutes at 1,000 RPM. Remove the platelet-rich plasma (PRP) and dilute the PRP 1:20 with 0.9% NaCl containing 14.4U heparin/mL. Add 180 μL of the diluted PRP to each well of a 96-well plate and incubate at 37° C. for 5 minutes. Then add 20 μL vehicle (HBSS with 1% DMSO) or drug and incubate for 15 minutes at 37° C. Add 10 μl calcium ionophore and incubate 15 minutes at 37° C. Stop the reaction on slush ice for 5 minutes and assay supernatants immediately for TXB2 production via RIA or EIA.
Prepare all drugs at 10 mM in DMSO by diluting the drug in HBSS at a 1.100 ratio with 1% DMSO to 100 μM. Add 20 μl to PRP (1:10 ratio) to obtain 10 μM final concentration. The calcium ionophore is prepared by using 7 mg/mL free acid calcium ionophore in DMSO, which is warmed until the ionophore goes into solution. Just prior to use, dilute the solution 1:25 with HBSS.

[2] = molecular target: T3, human prostaglandin H2 synthase type I (COX-1) (Homo sapiens, UniProt P23219); test: Human prostaglandin H2 synthase type I (COX-1) homogenate assay (transfected COS-7 cells, PGE2 formation); assay type: biochemical; settings: @10 μM; COS-7 homogenate; read-out: P6: COX 1 Homogenized Cell % Inhibition
T3 construct: expressed in transfected cells; host or cells: COS-7 (African Green Monkey Kidney)
T3 sequence (P23219 24-599): as above
Description: HUMAN PROSTAGLANDIN H2 SYNTHASE--TYPE I (COX-1) HOMOGENATE ASSAY (SINGLE CONCENTRATION)
Procedures 6 and 7 were used to assess COX-1 activity in a homogenized cell assay as follows:
(§1) COS-7 (African Green Monkey Kidney) cells are maintained in a suitable medium, and are trypsinized and plated at a density of 1×10^6 cells/well of a 6 well plate prior to assay. Approximately 24 hours later, cells are transiently transfected with a plasmid containing the human COX-1 gene using the lipofectamine method. Two days later, the cell-free homogenate is prepared by subjecting the cells to a polytron followed by centrifugation at 9,000×g. COX activity, initiated by the addition of […] arachidonic acid to the 9,000×g supernatant, is monitored in the presence of vehicle or drug. Product (PGE2) formation is quantitated by radioimmunoassay. Activity, reported as percent inhibition of PGE2 produced, is calculated as follows: [formula]

[3] = molecular target: T1, human prostaglandin H2 synthase type II (COX-2); test: Human prostaglandin H2 synthase type II (hCOX-2) homogenate assay (transfected COS-7 cells, PGE2 formation); assay type: biochemical; design: expressed in transfected cells; host or cells: COS-7 (African Green Monkey Kidney); settings: COS-7 homogenate; read-out: P4: COX 2 Homogenized Cell IC50
Description: HUMAN PROSTAGLANDIN H2 SYNTHASE TYPE II (hCOX-2) HOMOGENATE ASSAY (SINGLE CONCENTRATION)
Procedures 3 and 4 were used to assess COX-2 activity in a homogenized cell assay as follows:
as §1, with “COX-2” for “COX-1”

| SMILES | IC50 [1] | IC50 (COX-1) | further results |
| --- | --- | --- | --- |
| CS(=O)(=O)c1ccc(-n2nc3c(c2-c2ccc(F)cc2)CCCCC3)cc1 [Example 13-1h] | 10000 nM |  |  |
| CS(=O)(=O)c1ccc(-n2nc(-c3ccc(F)cc3)c3ccccc32)cc1 [Example 32i] |  |  | inhibition at 3 µM [1]: 12% |
| Fc1ccc(-n2nc(-c3ccc(Cl)cc3)c3c2CCCCC3)cc1 [Example 13-1b, 3-(4-Chlorophenyl)-1-(4-fluorophenyl)-cycloheptano-[1,2-d]-pyrazole] | > 10000 nM | > 10 µM | inhibition at 10 µM [1]: 59% |
| CS(=O)(=O)c1ccc(-n2nc3c(c2-c2ccc(F)cc2)CCC=C3)cc1 [Example 5b] | 4750 nM |  |  |
| CS(=O)(=O)c1ccc(-n2nc(-c3ccc(Cl)cc3)c3c2C=CCC3)cc1 [Example 4a, 3-(4-Chlorophenyl)-4,5-dihydro-1-(4-methylsulfonylphenyl)-1H-indazole] | > 10000 nM | > 10 µM | inhibition at 10 µM [2]: 32%; inhibition at 10 µM [1]: 0% |
| COc1ccc(-n2nc3c(c2-c2ccc(Cl)cc2)CCCCC3)cc1 [Example 13-1c] | 19500 nM | > 10 µM |  |
| CS(=O)(=O)c1ccc(-n2nc3c(c2-c2ccc(Cl)cc2)CCC(O)C3)cc1 (stereo not shown) [Example 49d] | 10000 nM | > 10 µM |  |
| CS(=O)(=O)c1ccc(-n2nc3c(c2-c2ccc(Cl)cc2)CCC2OC32)cc1 (stereo not shown) [Example 48d] | 9580 nM |  |  |
| CS(=O)(=O)c1ccc(-n2nc3c(c2-c2ccc(Cl)cc2)CCCCC3)cc1 [Example 13-1d] | 9410 nM | > 10 µM | IC50 [3]: 1.5 µM |
| CS(=O)(=O)c1ccc(-n2nc(-c3ccc(C(F)(F)F)cc3)c3c2C=CCC3)cc1 [Example 32g] | > 10000 nM | > 10 µM |  |
| CS(=O)(=O)c1ccc(-n2nc3c(c2-c2ccc(F)cc2)CCC2OC32)cc1 (stereo not shown) [Example 48e] | 6280 nM | > 10 µM |  |
| CS(=O)(=O)c1ccc(-n2nc3c(c2-c2ccc(F)cc2)CC2(CC3)OCCO2)cc1 [Example 30b] | > 10000 nM |  | IC50 [3]: 21.7 µM |
| Clc1ccc(-c2nn(-c3ccc(Cl)cc3)c3c2CCCCC3)cc1 [Example 13, 3-(4-Chlorophenyl)-1-(4-chlorophenyl)-cycloheptano-[1,2-d]-pyrazole] | 10000 nM |  | inhibition at 10 µM [1]: 3% |
| Clc1ccc(-c2nn(-c3ccc(Cl)cc3)c3c2CCC3)cc1 [Example 2, 1,3-Di-(4-Chlorophenyl)-cyclopenta-[1,2-d]-pyrazole] |  |  | inhibition at 10 µM [1]: 0% |
| CS(=O)(=O)c1ccc(-n2nc(-c3ccc(F)cc3)c3c2C=CCC3)cc1 [Example 32h] |  |  | inhibition at 3 µM [1]: 13% |
| COc1ccc(-n2nc3c(c2-c2ccc(F)cc2)CC2(CC3)OCCO2)cc1 [Example 30c] | > 10000 nM |  | IC50 [3]: 20.3 µM |
| CS(=O)(=O)c1ccc(-n2nc(-c3ccc(Cl)cc3)c3c2CCCC3)cc1 [Example 30e] |  |  | inhibition at 3 µM [1]: 21% |
| Fc1ccc(-n2nc(-c3ccc(Cl)cc3)c3c2-c2c([nH]c4ccc(F)cc24)CC3)cc1 [Example 32f] | 6200 nM | 0.64 µM |  |

More lines, main results first:

| IC50 [1] | IC50 (COX-1) | SMILES | further results |
| --- | --- | --- | --- |
| 620 nM | 10 µM | Clc1ccc(-c2nn(-c3ccccc3)c3c2CCCC3)cc1 [Example 6-1b, 3-(4-Chlorophenyl)-4,5,6,7-tetrahydro-1-phenyl-1H-indazole] |  |
| 2590 nM | 10 µM | Clc1ccc(-c2nn(-c3ccccc3)c3c2CCC3)cc1 [Example 3-1] |  |
| 1380 nM | 5.5 µM | Clc1ccc(-c2c3c(nn2-c2ccccc2)CCCCC3)cc1 [Example 13-1f] |  |
| 1220 nM | 10 µM | Cc1ccc(-n2nc3c(c2-c2ccc(Cl)cc2)CCCCC3)cc1 [Example 13-1e] |  |
| 1240 nM | 10 µM | COc1ccc(-c2nn(-c3ccccc3)c3c2CCCCC3)cc1 [Example 13-2b, 3-(4-Methoxy)-1-phenyl-cycloheptano-[1,2-d]-pyrazole] |  |
| 2330 nM | > 10 µM | CS(=O)(=O)c1ccc(-n2nc3c(c2-c2ccc(Cl)cc2)CCC=C3)cc1 [Example 4b] |  |
| 820 nM | > 10 µM | CS(=O)(=O)c1ccc(-n2nc3c(c2-c2ccc(Cl)cc2)CCCC3)cc1 [Example 30d] |  |
| 140 nM | 1 µM | Clc1ccc(-c2nn(-c3ccccc3)c3c2CCCCC3)cc1 [Example 12, 3-(4-Chlorophenyl)-1-phenyl-cycloheptano-[1,2-d]-pyrazole] | inhibition at 10 µM [2]: 93% |
| 170 nM | 0.12 µM | c1ccc(-c2nn(-c3ccccc3)c3c2CCCCC3)cc1 [Example 7, 1,3-Diphenyl-4,5,6,7,8,-[5H]cycloheptano-[1,2-d]-pyrazole] |  |
| 320 nM | > 10 µM | CS(=O)(=O)c1ccc(-c2c3ccccc3nn2-c2ccc(F)cc2)cc1 [Example 32e] |  |
| 570 nM | > 10 µM | Clc1ccc(-c2c3c(nn2-c2ccccc2)CCCC3)cc1 [Example 6-1a, 3-(4-Chlorophenyl)-4,5,6,7-tetrahydro-2-phenyl-2H-indazole] |  |
| 1440 nM | > 10 µM | CS(=O)(=O)c1ccc(-n2nc3c(c2-c2ccc(Cl)cc2)CCC(=O)C3)cc1 [Example 52b] |  |
| 970 nM | 16 µM | CS(=O)(=O)c1ccc(-n2nc3ccccc3c2-c2ccc(Cl)cc2)cc1 [Example 32d] |  |
| 3640 nM |  | COc1ccc(-n2nc3c(c2-c2ccc(F)cc2)CCCCC3)cc1 [Example 13-1g] | IC50 [3]: 8.1 µM |
| 570 nM | 0.49 µM | c1ccc(-c2nn(-c3ccccc3)c3c2CCCC3)cc1 [Example 6, 1,3-Diphenyl-cyclohexa-[1,2-d]-pyrazole] |  |
